From publication PMC11289455 (Scientific Reports, 2024)
Where two headings read alike, the source gives them in different places.

Experiments:
[1] = target: T1, GR (glucocorticoid receptor) (Homo sapiens, UniProt P04150); experiment: SafetyScreen44: GR; type: binding
T1 construct: purchased Eurofins Cerep SafetyScreen44
T1 sequence (P04150 1-777): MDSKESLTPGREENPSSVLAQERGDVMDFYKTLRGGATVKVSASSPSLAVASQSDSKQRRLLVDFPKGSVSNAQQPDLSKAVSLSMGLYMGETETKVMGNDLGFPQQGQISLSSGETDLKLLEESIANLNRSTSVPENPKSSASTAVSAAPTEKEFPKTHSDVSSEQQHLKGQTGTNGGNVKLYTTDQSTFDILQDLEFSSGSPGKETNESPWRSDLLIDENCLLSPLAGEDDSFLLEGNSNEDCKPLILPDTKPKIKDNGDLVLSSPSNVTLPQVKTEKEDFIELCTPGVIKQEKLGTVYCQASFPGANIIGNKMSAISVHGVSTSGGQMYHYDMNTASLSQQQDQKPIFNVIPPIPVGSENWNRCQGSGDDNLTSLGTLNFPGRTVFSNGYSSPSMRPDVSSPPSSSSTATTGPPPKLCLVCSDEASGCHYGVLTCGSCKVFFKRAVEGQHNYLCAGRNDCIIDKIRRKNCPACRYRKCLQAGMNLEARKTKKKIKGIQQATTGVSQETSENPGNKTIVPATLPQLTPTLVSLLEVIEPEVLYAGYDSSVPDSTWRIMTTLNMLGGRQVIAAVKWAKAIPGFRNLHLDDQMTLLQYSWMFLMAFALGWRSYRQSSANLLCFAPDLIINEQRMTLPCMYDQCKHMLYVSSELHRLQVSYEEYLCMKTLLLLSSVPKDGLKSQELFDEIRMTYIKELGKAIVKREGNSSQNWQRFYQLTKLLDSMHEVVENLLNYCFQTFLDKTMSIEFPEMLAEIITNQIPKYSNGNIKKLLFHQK

[2] = target: T2, N neuronal α4β2 (neuronal alpha-4-beta-2 nicotinic acetylcholine receptor) (Homo sapiens, UniProt P17787+P43681); experiment: SafetyScreen44: N neuronal α4β2; type: binding
T2 construct: purchased Eurofins Cerep SafetyScreen44

[3] = target: T3, H2 (histamine H2 receptor) (Homo sapiens, UniProt P25021); experiment: SafetyScreen44: H2; type: binding
T3 construct: purchased Eurofins Cerep SafetyScreen44

[4] = target: T4, 5-HT2B (serotonin 2B receptor) (Homo sapiens, UniProt P41595); experiment: SafetyScreen44: 5-HT2B; type: binding
T4 construct: purchased Eurofins Cerep SafetyScreen44

[5] = First-in-human study, pharmacokinetics; type: in vivo; settings: healthy participants
Method: (§1) The purpose of the first-in-human, single-center, randomized, double-blind, placebo-controlled study was to determine the safety, tolerability, pharmacokinetics, and pharmacodynamics of JNJ-77242113 in healthy participants. […] AEs were coded using the Medical Dictionary for Regulatory Activities (Version 23.1).
Whole blood samples were collected in TruCulture Tubes containing 10 ng/mL IL-2 and 20 ng/mL IL-18 with or without additional IL-23 (0.5 ng/mL, R&D Systems/Biotechne). […] IFNγ was quantified via the V-Plex-plus human IFNγ kit (MSD).
Mean concentration–time profiles for each treatment/dose group were presented graphically. Descriptive statistics were used to describe demographic and safety data.

[6] = target: T5, A2A (adenosine 2A receptor) (Homo sapiens, UniProt P29274); experiment: SafetyScreen44: A2A; type: binding
T5 construct: purchased Eurofins Cerep SafetyScreen44

[7] = target: T6, PDE4D2 (cAMP-specific 3’,5’-cyclic phosphodiesterase 4D2) (Homo sapiens, UniProt Q08499); experiment: SafetyScreen44: PDE4D2; type: biochemical
T6 construct: purchased Eurofins Cerep SafetyScreen44

[8] = Nonclinical tissue distribution in monkeys; type: in vivo, monkey; settings: variety of tissues (e.g. colon, ileum, and skin), nonclinical data
[9] = target: T7, D1 (dopamine D1 receptor) (Homo sapiens, UniProt P21728); experiment: SafetyScreen44: D1; type: binding
T7 construct: purchased Eurofins Cerep SafetyScreen44

[10] = target: T8, Dopamine transporter (Homo sapiens, UniProt Q01959); experiment: SafetyScreen44: dopamine transporter; type: binding
T8 construct: purchased Eurofins Cerep SafetyScreen44

[11] = target: T9, β2 (beta-2 adrenergic receptor) (Homo sapiens, UniProt P07550); experiment: SafetyScreen44: β2; type: binding
T9 construct: purchased Eurofins Cerep SafetyScreen44

[12] = Plasma concentration in rat pharmacokinetic-pharmacodynamic model; type: in vivo
[13] = target: T10, CB1 (cannabinoid receptor type 1) (Homo sapiens, UniProt P21554); experiment: SafetyScreen44: CB1; type: binding
T10 construct: purchased Eurofins Cerep SafetyScreen44

[14] = target: T11, V1a (vasopressin receptor 1A) (Homo sapiens, UniProt P37288); experiment: SafetyScreen44: V1a; type: binding
T11 construct: purchased Eurofins Cerep SafetyScreen44

[15] = tested on: healthy participants; experiment: First-in-human study, safety and tolerability; type: in vivo
From the text: as §1

[16] = Part 2 (MAD), once daily oral dosing for 10 days

T5 sequence (P29274 whole entry): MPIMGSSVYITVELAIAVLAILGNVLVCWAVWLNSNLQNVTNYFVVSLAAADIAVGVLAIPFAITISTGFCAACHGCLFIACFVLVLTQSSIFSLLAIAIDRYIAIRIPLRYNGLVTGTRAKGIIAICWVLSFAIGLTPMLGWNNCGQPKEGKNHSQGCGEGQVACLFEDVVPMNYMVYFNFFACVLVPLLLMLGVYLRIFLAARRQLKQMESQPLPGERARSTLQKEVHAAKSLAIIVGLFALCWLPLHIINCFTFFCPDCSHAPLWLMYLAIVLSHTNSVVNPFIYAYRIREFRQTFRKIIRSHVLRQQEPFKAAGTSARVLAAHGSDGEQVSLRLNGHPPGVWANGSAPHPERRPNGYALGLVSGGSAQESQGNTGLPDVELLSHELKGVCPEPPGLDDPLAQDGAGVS
T4 sequence (P41595 whole entry): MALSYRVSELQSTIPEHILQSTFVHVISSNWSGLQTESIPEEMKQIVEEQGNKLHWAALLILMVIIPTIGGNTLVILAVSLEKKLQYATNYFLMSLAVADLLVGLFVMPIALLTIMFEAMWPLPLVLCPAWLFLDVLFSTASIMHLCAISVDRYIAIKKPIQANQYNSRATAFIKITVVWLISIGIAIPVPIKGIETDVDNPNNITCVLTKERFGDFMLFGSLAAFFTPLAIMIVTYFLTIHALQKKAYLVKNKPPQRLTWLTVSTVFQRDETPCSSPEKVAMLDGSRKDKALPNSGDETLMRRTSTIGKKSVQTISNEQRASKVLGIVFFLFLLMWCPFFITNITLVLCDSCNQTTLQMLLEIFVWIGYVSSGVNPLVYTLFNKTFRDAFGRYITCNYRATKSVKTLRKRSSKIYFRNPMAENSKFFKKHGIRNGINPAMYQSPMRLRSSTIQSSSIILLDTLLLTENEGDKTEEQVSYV
T7 sequence (P21728 whole entry): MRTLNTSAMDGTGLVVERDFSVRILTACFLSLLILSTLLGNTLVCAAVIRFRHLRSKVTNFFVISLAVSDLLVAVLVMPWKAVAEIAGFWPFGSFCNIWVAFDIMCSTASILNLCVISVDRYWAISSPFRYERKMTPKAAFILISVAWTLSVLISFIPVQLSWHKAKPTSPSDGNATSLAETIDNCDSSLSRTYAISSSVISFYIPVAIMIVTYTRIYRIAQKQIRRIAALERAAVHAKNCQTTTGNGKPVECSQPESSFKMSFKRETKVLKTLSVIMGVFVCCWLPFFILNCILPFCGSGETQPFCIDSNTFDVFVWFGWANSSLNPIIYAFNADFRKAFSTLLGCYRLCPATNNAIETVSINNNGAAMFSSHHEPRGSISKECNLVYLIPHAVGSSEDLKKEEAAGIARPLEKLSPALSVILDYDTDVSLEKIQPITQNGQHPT
T9 sequence (P07550 whole entry): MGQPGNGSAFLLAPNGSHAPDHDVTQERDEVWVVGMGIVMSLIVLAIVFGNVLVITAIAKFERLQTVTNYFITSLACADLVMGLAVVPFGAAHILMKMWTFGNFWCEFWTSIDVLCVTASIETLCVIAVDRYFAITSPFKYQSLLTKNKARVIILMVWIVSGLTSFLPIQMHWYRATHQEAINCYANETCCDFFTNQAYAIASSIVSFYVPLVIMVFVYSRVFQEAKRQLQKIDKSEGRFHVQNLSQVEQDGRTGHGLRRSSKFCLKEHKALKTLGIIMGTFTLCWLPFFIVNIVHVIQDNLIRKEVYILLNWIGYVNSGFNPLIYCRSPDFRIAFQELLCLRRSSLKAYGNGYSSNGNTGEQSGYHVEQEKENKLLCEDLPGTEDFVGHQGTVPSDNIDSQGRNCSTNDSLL
T10 sequence (P21554 whole entry): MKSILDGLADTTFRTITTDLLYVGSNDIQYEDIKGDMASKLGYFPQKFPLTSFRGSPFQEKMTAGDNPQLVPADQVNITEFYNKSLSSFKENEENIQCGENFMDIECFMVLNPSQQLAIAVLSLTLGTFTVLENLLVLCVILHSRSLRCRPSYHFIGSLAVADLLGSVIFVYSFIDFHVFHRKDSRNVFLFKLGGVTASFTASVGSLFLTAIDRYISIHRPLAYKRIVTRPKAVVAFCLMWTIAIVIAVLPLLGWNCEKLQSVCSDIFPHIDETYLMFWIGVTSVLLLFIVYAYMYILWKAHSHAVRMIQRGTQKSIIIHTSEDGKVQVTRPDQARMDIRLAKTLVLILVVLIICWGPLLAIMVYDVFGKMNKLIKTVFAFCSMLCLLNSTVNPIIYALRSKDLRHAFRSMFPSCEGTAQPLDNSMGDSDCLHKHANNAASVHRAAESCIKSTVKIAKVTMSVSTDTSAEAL
T8 sequence (Q01959 whole entry): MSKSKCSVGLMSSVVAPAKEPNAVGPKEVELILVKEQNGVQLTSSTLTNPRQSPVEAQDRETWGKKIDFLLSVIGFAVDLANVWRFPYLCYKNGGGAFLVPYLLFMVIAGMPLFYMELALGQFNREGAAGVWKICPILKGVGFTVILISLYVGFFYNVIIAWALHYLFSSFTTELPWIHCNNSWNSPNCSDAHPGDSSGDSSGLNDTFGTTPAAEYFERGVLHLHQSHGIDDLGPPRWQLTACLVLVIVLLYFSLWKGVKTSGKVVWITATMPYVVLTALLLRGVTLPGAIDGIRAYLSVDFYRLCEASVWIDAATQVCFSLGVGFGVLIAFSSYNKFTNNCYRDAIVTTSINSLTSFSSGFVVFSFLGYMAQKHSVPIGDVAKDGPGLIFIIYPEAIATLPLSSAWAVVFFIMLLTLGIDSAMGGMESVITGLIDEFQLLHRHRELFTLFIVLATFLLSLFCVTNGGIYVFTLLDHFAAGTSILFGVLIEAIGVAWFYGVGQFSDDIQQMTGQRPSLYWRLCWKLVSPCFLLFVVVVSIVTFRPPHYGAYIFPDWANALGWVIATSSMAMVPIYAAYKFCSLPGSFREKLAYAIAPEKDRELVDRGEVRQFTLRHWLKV
T3 sequence (P25021 whole entry): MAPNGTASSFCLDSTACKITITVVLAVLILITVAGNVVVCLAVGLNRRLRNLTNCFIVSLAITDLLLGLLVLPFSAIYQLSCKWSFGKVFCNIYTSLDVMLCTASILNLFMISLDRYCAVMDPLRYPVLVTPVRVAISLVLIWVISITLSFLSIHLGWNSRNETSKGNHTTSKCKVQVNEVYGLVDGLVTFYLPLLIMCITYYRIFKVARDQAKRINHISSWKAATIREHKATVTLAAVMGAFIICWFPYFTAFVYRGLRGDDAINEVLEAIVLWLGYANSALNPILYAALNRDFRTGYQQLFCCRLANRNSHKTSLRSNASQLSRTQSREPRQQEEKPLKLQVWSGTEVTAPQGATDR
T2 sequence (P43681 29-627 limits assumed): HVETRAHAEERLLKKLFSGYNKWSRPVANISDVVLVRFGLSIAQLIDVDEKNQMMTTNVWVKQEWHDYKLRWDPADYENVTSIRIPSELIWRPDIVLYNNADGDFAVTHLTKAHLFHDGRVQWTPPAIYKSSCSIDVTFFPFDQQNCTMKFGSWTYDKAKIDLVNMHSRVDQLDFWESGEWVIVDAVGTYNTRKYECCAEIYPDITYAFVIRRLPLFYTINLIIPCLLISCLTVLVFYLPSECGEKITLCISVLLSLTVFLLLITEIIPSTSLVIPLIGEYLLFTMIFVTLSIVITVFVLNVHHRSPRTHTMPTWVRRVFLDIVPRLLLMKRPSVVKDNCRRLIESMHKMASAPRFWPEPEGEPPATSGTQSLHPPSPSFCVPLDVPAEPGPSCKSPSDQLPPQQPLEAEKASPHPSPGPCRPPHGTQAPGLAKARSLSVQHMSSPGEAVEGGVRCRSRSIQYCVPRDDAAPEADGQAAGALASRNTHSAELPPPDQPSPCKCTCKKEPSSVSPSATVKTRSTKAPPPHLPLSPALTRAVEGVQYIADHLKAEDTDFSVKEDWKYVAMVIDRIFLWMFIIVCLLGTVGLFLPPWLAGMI
T2 sequence (P17787 26-502): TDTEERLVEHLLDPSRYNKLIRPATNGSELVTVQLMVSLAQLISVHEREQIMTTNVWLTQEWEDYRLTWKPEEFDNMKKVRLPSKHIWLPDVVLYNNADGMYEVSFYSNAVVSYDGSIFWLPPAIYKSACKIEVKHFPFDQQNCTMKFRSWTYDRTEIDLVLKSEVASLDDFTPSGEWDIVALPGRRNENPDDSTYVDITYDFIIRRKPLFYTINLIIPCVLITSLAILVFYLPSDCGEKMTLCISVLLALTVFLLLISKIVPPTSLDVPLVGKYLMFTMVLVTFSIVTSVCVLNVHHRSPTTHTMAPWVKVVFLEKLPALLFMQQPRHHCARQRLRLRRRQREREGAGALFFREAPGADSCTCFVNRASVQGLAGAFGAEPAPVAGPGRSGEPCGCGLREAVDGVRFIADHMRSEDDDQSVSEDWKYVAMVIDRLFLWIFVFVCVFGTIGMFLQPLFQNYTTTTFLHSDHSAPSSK
T11 sequence (P37288 whole entry): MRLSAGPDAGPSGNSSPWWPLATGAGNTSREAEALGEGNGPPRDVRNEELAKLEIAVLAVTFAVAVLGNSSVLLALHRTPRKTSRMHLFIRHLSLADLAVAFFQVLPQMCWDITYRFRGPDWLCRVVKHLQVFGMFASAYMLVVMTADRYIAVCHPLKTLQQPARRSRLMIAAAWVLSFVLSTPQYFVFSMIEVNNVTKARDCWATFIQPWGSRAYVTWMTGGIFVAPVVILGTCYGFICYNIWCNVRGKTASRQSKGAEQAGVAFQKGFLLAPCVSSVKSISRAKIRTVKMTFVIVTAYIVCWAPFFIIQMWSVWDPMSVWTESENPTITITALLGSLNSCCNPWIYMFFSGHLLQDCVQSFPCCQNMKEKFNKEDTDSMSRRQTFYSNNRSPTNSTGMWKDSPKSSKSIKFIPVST

CC(=O)NCCCC[C@@H]1NC(=O)[C@H](Cc2c[nH]c3c(C)cccc23)NC(=O)[C@H]([C@@H](C)O)NC(=O)[C@H](CC(N)=O)NC(=O)[C@@H](NC(C)=O)C(C)(C)SSC(C)(C)[C@@H](C(=O)N[C@@H](Cc2ccc(OCCN)cc2)C(=O)N[C@@H](Cc2ccc3ccccc3c2)C(=O)NC2(C(=O)N[C@@H](CCC(=O)O)C(=O)N[C@@H](CC(N)=O)C(=O)N[C@@H](Cc3cccnc3)C(=O)N(C)CC(N)=O)CCOCC2)NC1=O [JNJ-77242113, S^3,1,S^3,6-cyclo[N-acetyl-3-sulfanyl-L-valyl-L-asparaginyl-L-threonyl-7-methyl-L-tryptophyl-N^6-acetyl-L-lysyl-3-sulfanyl-L-valyl-O-(2-aminoethyl)-L-tyrosyl-3-(naphthalen-2-yl)-L-alanyl-4-aminooxan-4-carbonyl-L-α-glutamyl-L-asparaginyl-3-(pyridin-3-yl)-L-alanyl-N^2-methylglycinamide]] gave an inhibition at 10 µM ([1]; 1st run, read-out: Percent inhibition of control ligand binding, GR, 1st run) of 3.5%, an inhibition at 10 µM ([1]; 2nd run, read-out: Percent inhibition of control ligand binding, GR, 2nd run) of -0.8% and an inhibition at 10 µM ([1]; mean of 2 runs, read-out: Percent inhibition of control ligand binding, GR, Mean) of 1.3%. It also gave an inhibition at 10 µM ([2]; 1st run, read-out: Percent inhibition of control ligand binding, N neuronal α4β2, 1st run) of -10.4%, an inhibition at 10 µM ([2]; 2nd run, read-out: Percent inhibition of control ligand binding, N neuronal α4β2, 2nd run) of -7.5% and an inhibition at 10 µM ([2]; mean of 2 runs, read-out: Percent inhibition of control ligand binding, N neuronal α4β2, Mean) of -8.9%. It also gave an inhibition at 10 µM ([3]; 1st run, read-out: Percent inhibition of control ligand binding, H2, 1st run) of -26.6%, an inhibition at 10 µM ([3]; 2nd run, read-out: Percent inhibition of control ligand binding, H2, 2nd run) of -22% and an inhibition at 10 µM ([3]; mean of 2 runs, read-out: Percent inhibition of control ligand binding, H2, Mean) of -24.3%. For the same molecule, the inhibition at 10 µM ([4]; 1st run, read-out: Percent inhibition of control ligand binding, 5-HT2B, 1st run) was -19.6%, the inhibition at 10 µM ([4]; 2nd run, read-out: Percent inhibition of control ligand binding, 5-HT2B, 2nd run) was -6.7% and the inhibition at 10 µM ([4]; mean of 2 runs, read-out: Percent inhibition of control ligand binding, 5-HT2B, Mean) was -13.1%. The “Plasma exposure versus dose (in words)” value ([5]; 100-fold dose range of 10 to 1000 mg oral) was “Dose-proportional plasma exposure”, the “Accumulation for AUC, Day 1 versus Day 10” value [5, 16] was 0.9 to 1.5 and the “Accumulation for Cmax, Day 1 versus Day 10” value [5, 16] was 0.7 to 1.6. The “Estimated terminal elimination half-life” value ([5]; oral 10 to 1000 mg, plasma LC–MS/MS) was 9 to 16 h, the inhibition at 10 µM ([6]; 1st run, read-out: Percent inhibition of control ligand binding, A2A, 1st run) was -8.7% and the inhibition at 10 µM ([6]; 2nd run, read-out: Percent inhibition of control ligand binding, A2A, 2nd run) was -6.2%. The inhibition at 10 µM ([6]; mean of 2 runs, read-out: Percent inhibition of control ligand binding, A2A, Mean) was -7.5%, the inhibition at 10 µM ([7]; 1st run, read-out: Percent inhibition of control ligand binding, PDE4D2, 1st run) was -22.6% and the inhibition at 10 µM ([7]; 2nd run, read-out: Percent inhibition of control ligand binding, PDE4D2, 2nd run) was -11.7%. The inhibition at 10 µM ([7]; mean of 2 runs, read-out: Percent inhibition of control ligand binding, PDE4D2, Mean) was -17.1%, the “Tissue distribution (in words)” value [8] was “distributed freely” and the inhibition at 10 µM ([9]; 1st run, read-out: Percent inhibition of control ligand binding, D1, 1st run) was 2.2%. It also gave an inhibition at 10 µM ([9]; 2nd run, read-out: Percent inhibition of control ligand binding, D1, 2nd run) of 3.7%, an inhibition at 10 µM ([9]; mean of 2 runs, read-out: Percent inhibition of control ligand binding, D1, Mean) of 2.9% and an inhibition at 10 µM ([10]; 1st run, read-out: Percent inhibition of control ligand binding, Dopamine transporter, 1st run) of -3.6%. For the same molecule, the inhibition at 10 µM ([10]; 2nd run, read-out: Percent inhibition of control ligand binding, Dopamine transporter, 2nd run) was -4.4%, the inhibition at 10 µM ([10]; mean of 2 runs, read-out: Percent inhibition of control ligand binding, Dopamine transporter, Mean) was -4% and the inhibition at 10 µM ([11]; 1st run, read-out: Percent inhibition of control ligand binding, β2, 1st run) was -8.2%. The inhibition at 10 µM ([11]; 2nd run, read-out: Percent inhibition of control ligand binding, β2, 2nd run) was -0.6%, the inhibition at 10 µM ([11]; mean of 2 runs, read-out: Percent inhibition of control ligand binding, β2, Mean) was -4.4% and the “Mean dilution-adjusted exposure at 2 h (Tmax)” value ([12]; 10 mg/kg oral, plasma LC–MS/MS, dilution adjusted) was 660 pM. For the same molecule, the “Exposures (in words)” value ([12]; in vivo oral doses less than 10 mg/kg) was “below the limit of quantification”, the inhibition at 10 µM ([13]; 1st run, read-out: Percent inhibition of control ligand binding, CB1, 1st run) was 2.5% and the inhibition at 10 µM ([13]; 2nd run, read-out: Percent inhibition of control ligand binding, CB1, 2nd run) was -6.9%. It also gave an inhibition at 10 µM ([13]; mean of 2 runs, read-out: Percent inhibition of control ligand binding, CB1, Mean) of -2.2%, an inhibition at 10 µM ([14]; 1st run, read-out: Percent inhibition of control ligand binding, V1a, 1st run) of 4.8% and an inhibition at 10 µM ([14]; 2nd run, read-out: Percent inhibition of control ligand binding, V1a, 2nd run) of 6.4%. The inhibition at 10 µM ([14]; mean of 2 runs, read-out: Percent inhibition of control ligand binding, V1a, Mean) was 5.6%, the “Serious AEs or deaths related to JNJ-77242113” value ([15]; all cohorts) was “No serious AEs or deaths” and the “Severity of adverse events” value ([15]; all cohorts) was “mild or moderate”. For the same molecule, the “Headache, participants, Part 2” value ([15]; healthy participants, multiple ascending dose) was 13.6%, the “Frequency of treatment-related AEs, Part 2” value ([15]; healthy participants, multiple ascending dose, JNJ-77242113 groups) was 46% and the “Headache, participants, Part 1” value ([15]; healthy participants, single ascending dose) was 10.3%. For the same molecule, the “Frequency of treatment-related AEs, Part 1” value ([15]; healthy participants, single ascending dose, JNJ-77242113 groups) was 31%.
